From ChEMBL document CHEMBL5291721, “A preclinical secondary pharmacology resource illuminates target-adverse drug reaction associations of marketed drugs” (Nat Commun, 2023) come the findings set out here.

Targets include D(1A) dopamine receptor (Homo sapiens, UniProt P21728); D(3) dopamine receptor (Homo sapiens, UniProt P35462); Histamine H3 receptor (Homo sapiens, UniProt Q9Y5N1).
Assay [1] addresses Voltage-gated inwardly rectifying potassium channel KCNH2 (Homo sapiens, UniProt Q12809). The format is functional. As to conditions: read-out: AC50.
In another assay the target is Prothrombin (Homo sapiens, UniProt P00734). The format is functional.
For a further assay, the target named is T1, Thromboxane A2 receptor (Homo sapiens, UniProt P21731).
T1 sequence (P21731 whole entry): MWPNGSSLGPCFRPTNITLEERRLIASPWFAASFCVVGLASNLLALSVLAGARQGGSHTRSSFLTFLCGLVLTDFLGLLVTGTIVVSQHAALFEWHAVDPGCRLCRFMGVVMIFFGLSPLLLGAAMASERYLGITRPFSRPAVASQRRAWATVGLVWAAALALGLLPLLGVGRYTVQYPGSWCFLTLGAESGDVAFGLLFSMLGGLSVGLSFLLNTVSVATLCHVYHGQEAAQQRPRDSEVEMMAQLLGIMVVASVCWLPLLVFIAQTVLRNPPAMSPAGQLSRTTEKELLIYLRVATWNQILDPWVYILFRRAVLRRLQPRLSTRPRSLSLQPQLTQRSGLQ
The format is functional, cell-based.

The target in a further assay is T2, Adenosine receptor A3 (Homo sapiens, UniProt P0DMS8).
T2 sequence (P0DMS8 whole entry): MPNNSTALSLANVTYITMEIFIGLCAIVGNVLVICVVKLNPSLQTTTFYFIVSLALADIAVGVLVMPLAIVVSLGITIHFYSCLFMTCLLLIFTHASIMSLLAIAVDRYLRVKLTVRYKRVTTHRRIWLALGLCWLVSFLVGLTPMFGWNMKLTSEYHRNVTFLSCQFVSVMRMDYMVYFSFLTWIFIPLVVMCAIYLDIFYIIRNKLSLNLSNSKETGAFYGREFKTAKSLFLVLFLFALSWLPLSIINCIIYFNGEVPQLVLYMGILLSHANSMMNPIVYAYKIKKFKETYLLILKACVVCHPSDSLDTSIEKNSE

The target of assay [2] is T3, Alpha-1A adrenergic receptor (Homo sapiens, UniProt P35348).
T3 sequence (P35348 whole entry): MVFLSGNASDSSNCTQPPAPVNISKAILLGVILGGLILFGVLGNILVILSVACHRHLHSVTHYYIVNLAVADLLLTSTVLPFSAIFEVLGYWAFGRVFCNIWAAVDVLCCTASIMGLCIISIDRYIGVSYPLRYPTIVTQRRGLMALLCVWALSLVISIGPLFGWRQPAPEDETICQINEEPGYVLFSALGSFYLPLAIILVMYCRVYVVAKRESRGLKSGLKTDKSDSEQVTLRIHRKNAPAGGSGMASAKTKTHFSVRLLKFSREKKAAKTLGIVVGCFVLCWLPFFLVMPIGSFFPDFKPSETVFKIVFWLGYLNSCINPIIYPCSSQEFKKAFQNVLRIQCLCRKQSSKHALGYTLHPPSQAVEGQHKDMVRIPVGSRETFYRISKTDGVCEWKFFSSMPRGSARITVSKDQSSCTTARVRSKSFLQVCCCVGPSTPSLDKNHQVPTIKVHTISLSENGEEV
It counts as functional, cell-based.

The target of assay [3] is T4, Amine oxidase [flavin-containing] A (Homo sapiens, UniProt P21397).
T4 sequence (P21397 whole entry): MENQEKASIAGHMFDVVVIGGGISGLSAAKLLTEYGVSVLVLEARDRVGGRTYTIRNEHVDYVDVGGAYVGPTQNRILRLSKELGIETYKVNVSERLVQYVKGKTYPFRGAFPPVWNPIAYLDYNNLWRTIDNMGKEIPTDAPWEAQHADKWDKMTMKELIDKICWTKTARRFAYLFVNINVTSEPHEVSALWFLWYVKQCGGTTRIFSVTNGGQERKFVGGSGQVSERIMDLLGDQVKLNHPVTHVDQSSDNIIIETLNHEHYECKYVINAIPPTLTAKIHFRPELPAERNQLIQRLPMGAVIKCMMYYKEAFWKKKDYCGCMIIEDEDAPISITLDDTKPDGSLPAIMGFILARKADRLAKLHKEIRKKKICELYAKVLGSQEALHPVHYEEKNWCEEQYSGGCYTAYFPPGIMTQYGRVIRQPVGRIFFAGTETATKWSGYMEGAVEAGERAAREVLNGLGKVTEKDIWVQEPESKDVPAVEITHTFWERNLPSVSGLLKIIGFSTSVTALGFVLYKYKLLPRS
The format is functional.

A further assay addresses T5, Progesterone receptor (Homo sapiens, UniProt P06401).
T5 sequence (P06401 whole entry): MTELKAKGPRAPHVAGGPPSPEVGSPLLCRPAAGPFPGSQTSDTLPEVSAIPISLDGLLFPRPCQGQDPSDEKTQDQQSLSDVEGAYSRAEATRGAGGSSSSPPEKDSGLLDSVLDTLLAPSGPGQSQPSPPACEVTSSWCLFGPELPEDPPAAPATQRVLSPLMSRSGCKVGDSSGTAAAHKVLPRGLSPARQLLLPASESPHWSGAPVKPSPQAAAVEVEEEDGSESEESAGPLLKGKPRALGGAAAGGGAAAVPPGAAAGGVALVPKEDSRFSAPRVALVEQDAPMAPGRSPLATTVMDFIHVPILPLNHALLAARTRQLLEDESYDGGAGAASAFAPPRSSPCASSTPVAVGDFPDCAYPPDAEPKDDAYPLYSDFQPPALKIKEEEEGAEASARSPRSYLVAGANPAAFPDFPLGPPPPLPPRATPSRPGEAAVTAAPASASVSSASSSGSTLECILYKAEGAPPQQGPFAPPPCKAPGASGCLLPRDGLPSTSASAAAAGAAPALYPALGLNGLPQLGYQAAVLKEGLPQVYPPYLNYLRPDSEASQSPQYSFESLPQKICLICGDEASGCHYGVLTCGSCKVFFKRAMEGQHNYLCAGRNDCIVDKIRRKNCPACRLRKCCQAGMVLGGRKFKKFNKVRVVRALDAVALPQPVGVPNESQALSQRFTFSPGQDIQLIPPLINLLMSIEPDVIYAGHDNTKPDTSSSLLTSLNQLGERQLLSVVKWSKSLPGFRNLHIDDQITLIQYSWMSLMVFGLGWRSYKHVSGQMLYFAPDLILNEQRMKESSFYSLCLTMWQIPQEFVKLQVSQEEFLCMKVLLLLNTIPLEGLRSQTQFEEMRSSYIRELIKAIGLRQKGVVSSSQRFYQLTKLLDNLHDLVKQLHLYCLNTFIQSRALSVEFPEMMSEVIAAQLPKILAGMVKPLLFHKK
Further: assay procedure not described here.

Chain of D(1A) dopamine receptor (P21728 whole entry): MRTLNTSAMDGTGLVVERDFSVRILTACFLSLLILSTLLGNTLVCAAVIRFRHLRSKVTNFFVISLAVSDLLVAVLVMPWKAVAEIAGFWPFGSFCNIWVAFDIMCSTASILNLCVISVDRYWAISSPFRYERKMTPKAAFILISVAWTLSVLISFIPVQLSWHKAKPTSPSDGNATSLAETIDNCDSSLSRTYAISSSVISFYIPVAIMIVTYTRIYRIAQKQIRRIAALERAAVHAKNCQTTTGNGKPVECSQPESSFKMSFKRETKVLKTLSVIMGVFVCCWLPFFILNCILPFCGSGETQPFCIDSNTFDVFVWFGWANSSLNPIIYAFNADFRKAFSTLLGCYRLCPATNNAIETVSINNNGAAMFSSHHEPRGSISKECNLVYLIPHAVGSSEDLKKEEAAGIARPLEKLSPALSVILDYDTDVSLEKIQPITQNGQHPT
Chain of Voltage-gated inwardly rectifying potassium channel KCNH2 (Q12809 whole entry): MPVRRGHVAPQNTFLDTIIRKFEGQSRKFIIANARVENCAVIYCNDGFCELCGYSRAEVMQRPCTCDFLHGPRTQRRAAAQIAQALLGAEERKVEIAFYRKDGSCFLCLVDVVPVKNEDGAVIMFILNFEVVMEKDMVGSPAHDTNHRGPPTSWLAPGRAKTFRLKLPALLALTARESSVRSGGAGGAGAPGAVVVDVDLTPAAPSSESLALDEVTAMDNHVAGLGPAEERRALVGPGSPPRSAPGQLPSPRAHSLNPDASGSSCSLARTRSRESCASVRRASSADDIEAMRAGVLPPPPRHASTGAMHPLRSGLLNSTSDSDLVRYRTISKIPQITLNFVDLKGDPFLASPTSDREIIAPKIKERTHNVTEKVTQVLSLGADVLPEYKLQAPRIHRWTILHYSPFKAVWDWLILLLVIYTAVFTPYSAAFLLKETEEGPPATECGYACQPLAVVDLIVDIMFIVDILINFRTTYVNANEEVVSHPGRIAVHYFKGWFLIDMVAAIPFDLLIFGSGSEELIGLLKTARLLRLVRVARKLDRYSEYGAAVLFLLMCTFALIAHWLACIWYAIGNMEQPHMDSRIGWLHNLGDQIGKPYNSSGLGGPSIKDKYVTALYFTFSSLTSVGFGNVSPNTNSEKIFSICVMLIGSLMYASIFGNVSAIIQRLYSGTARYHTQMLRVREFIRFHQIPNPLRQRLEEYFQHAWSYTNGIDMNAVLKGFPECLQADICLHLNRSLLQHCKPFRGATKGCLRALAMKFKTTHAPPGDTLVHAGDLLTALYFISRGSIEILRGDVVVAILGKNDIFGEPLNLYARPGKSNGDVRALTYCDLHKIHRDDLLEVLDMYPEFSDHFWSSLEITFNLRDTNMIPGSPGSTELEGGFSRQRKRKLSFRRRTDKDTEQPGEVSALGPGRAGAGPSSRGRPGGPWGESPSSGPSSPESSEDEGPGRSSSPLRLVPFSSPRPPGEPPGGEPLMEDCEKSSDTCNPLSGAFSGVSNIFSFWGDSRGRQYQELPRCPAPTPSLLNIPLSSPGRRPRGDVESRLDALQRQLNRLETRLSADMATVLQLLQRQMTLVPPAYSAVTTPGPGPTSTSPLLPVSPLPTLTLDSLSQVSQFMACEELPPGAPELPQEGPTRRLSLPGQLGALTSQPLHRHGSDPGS
Chain of D(3) dopamine receptor (P35462 whole entry): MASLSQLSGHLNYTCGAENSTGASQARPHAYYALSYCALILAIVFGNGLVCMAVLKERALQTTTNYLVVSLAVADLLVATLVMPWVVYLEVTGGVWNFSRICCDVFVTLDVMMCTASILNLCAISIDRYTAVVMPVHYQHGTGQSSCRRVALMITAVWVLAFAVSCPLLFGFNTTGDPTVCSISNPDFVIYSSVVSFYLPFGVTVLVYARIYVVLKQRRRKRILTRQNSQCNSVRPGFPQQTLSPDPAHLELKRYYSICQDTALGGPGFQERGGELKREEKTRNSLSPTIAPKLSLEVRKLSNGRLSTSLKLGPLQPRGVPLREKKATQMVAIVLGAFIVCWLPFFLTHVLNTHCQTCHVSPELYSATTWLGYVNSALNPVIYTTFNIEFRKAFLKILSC
Chain of Histamine H3 receptor (Q9Y5N1 whole entry): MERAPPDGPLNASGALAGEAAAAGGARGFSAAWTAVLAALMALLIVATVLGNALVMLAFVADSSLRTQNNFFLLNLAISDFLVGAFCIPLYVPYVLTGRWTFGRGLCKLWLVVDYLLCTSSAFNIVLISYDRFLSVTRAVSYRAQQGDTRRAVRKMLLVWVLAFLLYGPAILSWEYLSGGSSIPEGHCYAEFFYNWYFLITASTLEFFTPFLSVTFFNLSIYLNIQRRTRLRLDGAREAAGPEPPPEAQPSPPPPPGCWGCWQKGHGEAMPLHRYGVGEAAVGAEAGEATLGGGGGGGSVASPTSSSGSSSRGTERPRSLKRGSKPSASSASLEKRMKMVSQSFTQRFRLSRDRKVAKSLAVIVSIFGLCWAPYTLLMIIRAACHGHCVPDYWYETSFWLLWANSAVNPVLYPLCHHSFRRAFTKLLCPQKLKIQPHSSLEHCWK

On to `CN(C/C=C/c1ccccc1)Cc1cccc2ccccc12` [NAFTIFINE], for which, in assay [1], the AC50 turned out to be 2.02 µM.

Take `CC(=O)N[C@H]1[C@H]([C@H](O)[C@H](O)CO)OC(C(=O)O)=C[C@@H]1N=C(N)N` [ZANAMIVIR]: in assay [1], the concentration at half-maximal activity (AC50) is above 30 µM.

`Cn1cc[nH]c1=S` [METHIMAZOLE]: the AC50 on D(1A) dopamine receptor, at Prothrombin, on D(3) dopamine receptor, on Histamine H3 receptor, at Thromboxane A2 receptor and at Adenosine receptor A3 was above 30 µM throughout. For the same molecule, the AC50 (in assay [2]; in assay [3]; on Progesterone receptor) was above 30 µM in each case.

In the case of `CCCC(=O)N1CCCN(c2nc(N)c3cc(OC)c(OC)cc3n2)CC1` [BUNAZOSIN], the AC50 in assay [1] was determined as 4.5 µM.

With `CN(Cc1cc(Br)cc(Br)c1N)C1CCCCC1` [BROMHEXINE], the half-maximal activity concentration (AC50) on D(1A) dopamine receptor is above 30 µM; on Prothrombin, above 30 µM; in assay [1] it was 20 µM; at D(3) dopamine receptor, above 30 µM; at Histamine H3 receptor it was above 30 µM; on Thromboxane A2 receptor, above 30 µM. Moreover, the AC50 is 27.9 µM on Adenosine receptor A3, above 30 µM in assay [2], above 30 µM in assay [3] and above 30 µM on Progesterone receptor.

For the molecule `CC(C)(N)Cc1ccc(Cl)cc1` [CHLORPHENTERMINE], the half-maximal activity concentration (AC50) in assay [1] was above 30 µM.

Turning to `O=P(O)(O)C(O)(Cc1cccnc1)P(=O)(O)O` [RISEDRONIC ACID], the AC50 in [1] was above 30 µM.

Take `CC(C(O)c1ccc(O)cc1)N1CCC(Cc2ccccc2)CC1` (stereo unspecified) [IFENPRODIL]: the AC50 in [1] came to 0.67 µM.

Regarding `CC(C)NCC1CCc2cc(CO)c([N+](=O)[O-])cc2N1` (stereo unspecified) [OXAMNIQUINE], the AC50 in assay [1] is above 30 µM.

`CN(C)CCCN1c2ccccc2Sc2ccccc21` [PROMAZINE]: the AC50 in [1] turned out to be 8.1 µM.

For the molecule `CC(=O)N(CC(O)CO)c1c(I)c(C(=O)NCC(O)CO)c(I)c(C(=O)NCC(O)CO)c1I` (stereo unspecified) [IOHEXOL], the concentration at half-maximal activity (AC50) in [1] was above 30 µM.

Turning to `CN(CCCN1c2ccccc2CCc2ccccc21)CC(=O)c1ccc(Cl)cc1` [LOFEPRAMINE], the concentration at half-maximal activity (AC50) in assay [1] came to 3.3 µM.

Take `C[C@@H]1C[C@H]2[C@@H]3CCC4=CC(=O)C=C[C@]4(C)[C@@]3(F)[C@@H](O)C[C@]2(C)[C@H]1C(=O)CO` [DESOXIMETASONE]: the AC50 (on D(1A) dopamine receptor; on Prothrombin; in assay [1]; at D(3) dopamine receptor; on Histamine H3 receptor; on Thromboxane A2 receptor) was above 30 µM in each case. Moreover, the concentration at half-maximal activity (AC50) is above 30 µM at Adenosine receptor A3, above 30 µM in assay [2], above 30 µM in assay [3] and 0.0331 µM at Progesterone receptor.

For `CC1=NN(c2ccccc2)C(=O)C1` [EDARAVONE], the AC50 at D(1A) dopamine receptor was above 30 µM; on Prothrombin it was above 30 µM; in assay [1], above 30 µM; on D(3) dopamine receptor, 10.9 µM; at Histamine H3 receptor it was above 30 µM; on Thromboxane A2 receptor it was above 30 µM. In addition, the AC50 (at Adenosine receptor A3; in assay [2]; in [3]; at Progesterone receptor) was above 30 µM each time.

Take `C[N+](C)(C)CC(=O)O` [BETAINE]: in [1], the AC50 was above 30 µM.

With `CN(C)[C@@H]1C(O)=C(C(N)=O)C(=O)[C@@]2(O)C(O)=C3C(=O)c4c(O)ccc(Cl)c4[C@@H](O)[C@H]3C[C@@H]12` [DEMECLOCYCLINE], in assay [1], the AC50 is above 30 µM.

Turning to `N[C@@H](CSCC(=O)O)C(=O)O` [CARBOCYSTEINE], in [1], the AC50 was above 30 µM.

In the case of `CO[C@@]12[C@H](COC(N)=O)C3=C(C(=O)C(C)=C(N)C3=O)N1C[C@@H]1N[C@@H]12` [MITOMYCIN], the concentration at half-maximal activity (AC50) on D(1A) dopamine receptor, on Prothrombin, on D(3) dopamine receptor, at Histamine H3 receptor, at Thromboxane A2 receptor and at Adenosine receptor A3 was above 30 µM throughout. Besides, the half-maximal activity concentration (AC50) (in [2]; in assay [3]; at Progesterone receptor) was above 30 µM throughout.

Take `NS(=O)(=O)c1cc(Cl)c(Cl)c(S(N)(=O)=O)c1` [DICHLORPHENAMIDE]: the AC50 in assay [1] was above 30 µM.

Consider `Oc1cccc2cccnc12` [OXYQUINOLINE], for which the AC50 at D(1A) dopamine receptor, at Prothrombin, at D(3) dopamine receptor, on Histamine H3 receptor, on Thromboxane A2 receptor and at Adenosine receptor A3 was above 30 µM each time. Moreover, the concentration at half-maximal activity (AC50) (in assay [2]; in [3]; at Progesterone receptor) was above 30 µM throughout.

In the case of `CC(=O)O[C@]1(C(C)=O)CC[C@H]2[C@@H]3C[C@H](C)C4=CC(=O)CC[C@]4(C)[C@H]3CC[C@@]21C` [MEDROXYPROGESTERONE ACETATE], the AC50 (at D(1A) dopamine receptor; on Prothrombin; in assay [1]; on D(3) dopamine receptor; at Histamine H3 receptor; at Thromboxane A2 receptor) was above 30 µM in each case. Also, the AC50 in [2] and in assay [3] was above 30 µM each time.

With `NS(=O)(=O)c1cc(-c2nnn[nH]2)c(NCc2cccs2)cc1Cl` [AZOSEMIDE], the AC50 in assay [1] was above 30 µM.

Consider `C=C1C[C@@H]2[C@H](CC[C@]3(C)C(=O)CC[C@@H]23)[C@@]2(C)C=CC(=O)C=C12` [EXEMESTANE], for which the AC50 in assay [1] is above 30 µM.

On to `C[N+](C)(C)CCOC(N)=O` [CARBAMOYLCHOLINE], for which the concentration at half-maximal activity (AC50) in [1] was above 30 µM.

Take `Cc1c(O)cccc1C(=O)N[C@@H](CSc1ccccc1)[C@H](O)CN1C[C@H]2CCCC[C@H]2C[C@H]1C(=O)NC(C)(C)C`: the concentration at half-maximal activity (AC50) was above 30 µM on Prothrombin; above 30 µM in assay [1]; above 30 µM on D(3) dopamine receptor; above 30 µM at Histamine H3 receptor; above 30 µM on Thromboxane A2 receptor; 2.84 µM at Adenosine receptor A3. Further, the half-maximal activity concentration (AC50) (in assay [2]; in [3]; at Progesterone receptor) was above 30 µM in each case.

The term AC50 denotes the concentration at which the activity in the assay is half-maximal.
